Reference: patent US10287301B2 (Achillion Pharmaceuticals, Inc., priority 2015, dated 2019)

target: Human Factor D (Homo sapiens (Human), UniProt P00746); test: Human Factor D Assay; assay type: biochemical; conditions: not given
Procedure, shortened: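 Factor D (from human serum) 80 nM final + cpd, 5 min RT, 50 mM Tris/1M NaCl pH 7.5; add Z-L-Lys-SBzl 100 μM and DTNB 100 μM final. IC50 by nonlinear fit of rates vs [cpd].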

Human Factor D, sequence (P00746 26-253): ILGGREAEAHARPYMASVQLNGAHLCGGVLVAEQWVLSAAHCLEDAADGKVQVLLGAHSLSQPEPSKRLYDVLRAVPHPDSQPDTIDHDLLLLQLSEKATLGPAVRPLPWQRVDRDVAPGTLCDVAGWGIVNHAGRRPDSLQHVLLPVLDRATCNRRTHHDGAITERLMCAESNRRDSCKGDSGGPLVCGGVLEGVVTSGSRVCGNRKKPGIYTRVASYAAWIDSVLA

Compound | IC50
Cc1ncc(-c2ccc3c(c2)c([C@@H](C)O)nn3CC(=O)N2C[C@H](F)C[C@H]2C(=O)Nc2cccc(Br)n2)cn1 [Compound 426, (2S,4R)—N-(6-Bromopyridin-2-yl)-4-fluoro-1-(2-(3-((R)-1-hydroxyethyl)-5-(2-methylpyrimidin-5-yl)-1H-indazol-1-yl)acetyl)pyrrolidine-2-carboxamide] | 1 to 10 µM

same assay, conditions: Human Factor D 80 nM, substrate Z-L-Lys-SBzl; read-out: IC50

Compound | IC50
CC(=O)c1cn(CC(=O)N2C[C@H](F)C[C@H]2C(=O)Nc2cccc(Br)n2)c2ccc(-c3ccccc3Cl)cc12 [Compound 100, (2S,4R)-1-(2-(3-acetyl-5-(2-chlorophenyl)-1H-indol-1-yl)acetyl)-N-(6-bromopyridin-2-yl)-4-fluoropyrrolidine-2-carboxamide] | < 1 µM
CNc1ncc(-c2ccc3c(c2)c(C(C)=O)cn3CC(=O)N2C[C@H](F)C[C@H]2C(=O)Nc2cccc(-c3ccccc3Cl)c2F)cn1 [Compound 188, (2S,4R)-1-(2-(3-acetyl-5-(2-(methylamino)pyrimidin-5-yl)-1H-indol-1-yl)acetyl)-N-(2′-chloro-2-fluorobiphenyl-3-yl)-4-fluoropyrrolidine-2-carboxamide] | < 1 µM
CC(=O)c1cn(CC(=O)N2[C@@H]3C[C@@H]3C[C@H]2C(=O)Nc2cccc(Br)n2)c2ccc(-c3cncnc3)cc12 [Compound 17, (1R,3S,5R)-2-(2-(3-acetyl-5-(pyrimidin-5-yl)-1H-indol-1-yl)acetyl)-N-(6-bromopyridin-2-yl)2-azabicyclo[3.1.0] hexane-3-carboxamide] | < 1 µM
CC(=O)c1cn(CC(=O)N2C[C@H](F)C[C@H]2C(=O)N[C@@H]2CCC[C@H]2O)c2ccc(-c3ccnnc3)cc12 [Compound 143, (2S,4R)-1-(2-(3-acetyl-5-(pyridazin-4-yl)-1H-indol-1-yl)acetyl)-4-fluoro-N-((1R,2R)-2-hydroxycyclopentyl) pyrrolidine-2-carboxamide] | > 10 µM
Cc1nc2sccn2c1-c1csc(NC(=O)[C@@H]2C[C@@H](F)CN2C(=O)Cn2nc(C(N)=O)c3cc(-c4ccnnc4)ccc32)n1 [Compound 58, 1-(2-((2S,4R)-4-fluoro-2-(4-(6-methylimidazo[2,1-b]thiazol-5-yl)thiazol-2-ylcarbamoyl)pyrrolidin-1-yl)-2-oxoethyl)-5-(pyridazin-4-yl)-1H-indazole-3-carboxamide] | > 10 µM
NC(=O)c1nn(CC(=O)N2C[C@H](F)C[C@H]2C(=O)NC2CCCc3nc(-c4ccc(F)cc4)sc32)c2ccc(-c3ccnnc3)cc12 (stereo partly drawn) [Compound 107, 1-(2-((2S,4R)-4-fluoro-2-(2-(4-fluorophenyl)-4,5,6,7-tetrahydrobenzo[d]thiazol-7-ylcarbamoyl)pyrrolidin-1-yl)-2-oxoethyl)-5-(pyridazin-4-yl)-1H-indazole-3-carboxamide] | > 10 µM

same assay, conditions: Human Factor D assay of Example 8; Table 2; read-out: IC50

Compound | IC50
CC(=O)c1nn(CC(=O)N2C[C@H](F)C[C@H]2C(=O)Nc2cccc(OC(F)(F)F)c2F)c2ccc(-c3cnc4cc(C)nn4c3)cc12 [Compound 256, (2S,4R)-1-(2-(3-acetyl-5-(2-methylpyrazolo[1,5-a]pyrimidin-6-yl)-1H-indazol-1-yl)acetyl)-4-fluoro-N-(2-fluoro-3-(trifluoromethoxy)phenyl)pyrrolidine-2-carboxamide] | < 1 µM
CC(=O)c1nn(CC(=O)N2C[C@H](F)C[C@H]2C(=O)Nc2cccc(Br)n2)c2ccc(-c3ccn4nccc4n3)cc12 [Compound 242, (2S,4R)-1-(2-(3-acetyl-5-(pyrazolo[1,5-a]pyrimidin-5-yl)-1H-indazol-1-yl)acetyl)-N-(6-bromopyridin-2-yl)-4-fluoropyrrolidine-2-carboxamide] | < 1 µM
CC(=O)c1cn(CC(=O)N2[C@@H]3C[C@@H]3C[C@H]2C(=O)Nc2cncc(Br)n2)c2ccc(-c3cnc4cc(C)nn4c3)cc12 [Compound 331, (1R,3S,5R)-2-(2-(3-acetyl-5-(2-methylpyrazolo[1,5-a]pyrimidin-6-yl)-1H-indol-1-yl)acetyl)-N-(6-bromopyrazin-2-yl)-2-azabicyclo[3.1.0] hexane-3-carboxamide] | < 1 µM
CC(=O)c1cn(CC(=O)N2C[C@H](F)C[C@H]2C(=O)Nc2cccc(-c3ccccc3Cl)c2F)c2ccc(-c3cnc(C(=O)NC4CC4)nc3)cc12 [Compound 211, 5-(3-acetyl-1-(2-((2S,4R)-2-(2′-chloro-2-fluorobiphenyl-3-ylcarbamoyl)-4-fluoropyrrolidin-1-yl)-2-oxoethyl)-1H-indol-5-yl)-N-cyclopropylpyrimidine-2-carboxamide] | < 1 µM
CC(=O)c1nn(CC(=O)N2C[C@H](F)C[C@H]2C(=O)Nc2cccc(-c3sccc3Cl)c2F)c2ccc(-c3cnc(C)nc3)cc12 [Compound 327, (2S,4R)-1-(2-(3-acetyl-5-(2-methylpyrimidin-5-yl)-1H-indazol-1-yl)acetyl)-N-(3-(3-chlorothiophen-2-yl)-2-fluorophenyl)-4-fluoropyrrolidine-2-carboxamide] | < 1 µM
CC(=O)c1cn(CC(=O)N2NCCC2C(=O)Nc2cccc(-c3ccccc3Cl)c2F)c2ccc(-c3cnc(C)nc3)cc12 (stereo not shown) [Compound 227, 2-(2-(3-acetyl-5-(2-methylpyrimidin-5-yl)-1H-indol-1-yl)acetyl)-N-(2′-chloro-2-fluorobiphenyl-3-yl)pyrazolidine-3-carboxamide] | < 1 µM
COC(=O)c1ncc(-c2ccc3c(c2)c(C(C)=O)cn3CC(=O)N2C[C@H](F)C[C@H]2C(=O)Nc2cccc(-c3ccccc3Cl)c2F)cn1 [Compound 204, methyl 5-(3-acetyl-1-(2-((2S,4R)-2-(2′-chloro-2-fluorobiphenyl-3-ylcarbamoyl)-4-fluoropyrrolidin-1-yl)-2-oxoethyl)-1H-indol-5-yl)pyrimidine-2-carboxylate] | < 1 µM

same assay, conditions: Human Factor D, Table 3; read-out: IC50

Compound | IC50
CC(=O)c1cccc(NC(=O)[C@@H]2C[C@@H](F)CN2C(=O)Cn2nc(C(C)=O)c3cc(-c4cnc(C)nc4)ccc32)n1 [Compound 584, (2S,4R)-1-(2-(3-Acetyl-5-(2-methylpyrimidin-5-yl)-1H-indazol-1-yl)acetyl)-N-(6-acetylpyridin-2-yl)-4-fluoropyrrolidine-2-carboxamide] | < 1 µM
CC(=O)c1nn(CC(=O)N2C[C@H](F)C[C@H]2C(=O)Nc2cccc(Br)n2)c2ccc(-c3cnc(OC4CS(=O)(=O)C4)nc3)cc12 [Compound 591, (2S,4R)-1-(2-(3-Acetyl-5-(2-((1,1-dioxidothietan-3-yl)oxy)pyrimidin-5-yl)-1H-indazol-1-yl)acetyl)-N-(6-bromopyridin-2-yl)-4-fluoropyrrolidine-2-carboxamide] | < 1 µM
CC(=O)c1nn(CC(=O)N2C3CC[C@@H](C3)[C@H]2C(=O)Nc2nc(Br)ccc2C)c2ccc(-c3cnc(C)nc3)cc12 [Compound 617, (3S,4S)-2-(2-(3-Acetyl-5-(2-methylpyrimidin-5-yl)-1H-indazol-1-yl)acetyl)-N-(6-bromo-3-methylpyridin-2-yl)-2-azabicyclo[2.2.1]heptane-3-carboxamide] | < 1 µM
CC(=O)c1nn(CC(=O)N2C[C@H](F)C[C@H]2C(=O)Nc2cccc(Br)n2)c2ccc(-c3cnc(=O)n(C)c3)cc12 [Compound 702, (2S,4R)-1-(2-(3-Acetyl-5-(1-methyl-2-oxo-1,2-dihydropyrimidin-5-yl)-1H-indazol-1-yl)acetyl)-N-(6-bromopyridin-2-yl)-4-fluoropyrrolidine-2-carboxamide] | < 1 µM

same assay, conditions: Table 3; Human Factor D 80 nM, substrate Z-L-Lys-SBzl; read-out: IC50 (Stars)

Compound | IC50
CC(=O)c1nn(CC(=O)N2C[C@H](F)C[C@H]2C(=O)Nc2nc(Br)ccc2C)c2ccc(-c3cnc(C)cn3)cc12 [Compound 467, (2S,4R)-1-(2-(3-Acetyl-5-(5-methylpyrazin-2-yl)-1H-indazol-1-yl)acetyl)-N-(6-bromo-3-methylpyridin-2-yl)-4-fluoropyrrolidine-2-carboxamide] | < 1 µM
Cc1cccc(NC(=O)[C@@H]2[C@H]3CC[C@H](C3)N2C(=O)Cn2cc(C(N)=O)c3cc(-c4ccc(N)nc4)ccc32)n1 [Compound 498, 5-(6-Aminopyridin-3-yl)-1-(2-((1R,3S,4S)-3-(6-methylpyridin-2-ylcarbamoyl)-2-azabicyclo[2.2.1]heptan-2-yl)-2-oxoethyl)-1H-indole-3-carboxamide] | > 10 µM
CC(=O)c1nn(CC(=O)N2C[C@H](F)C[C@H]2C(=O)Nc2nc(Br)ccc2C)c2ccc(-c3ccnc(C)n3)cc12 [Compound 468, (2S,4R)-1-(2-(3-Acetyl-5-(2-methylpyrimidin-4-yl)-1H-indazol-1-yl)acetyl)-N-(6-bromo-3-methylpyridin-2-yl)-4-fluoropyrrolidine-2-carboxamide] | < 1 µM
CC(=O)c1nn(CC(=O)N2C[C@H](F)C[C@H]2C(=O)Nc2ccc(F)c(Br)c2)c2ccc(-c3cnc(C)nc3)cc12 [Compound 509, (2S,4R)-1-(2-(3-Acetyl-5-(2-methylpyrimidin-5-yl)-1H-indazol-1-yl)acetyl)-N-(3-bromo-4-fluorophenyl)-4-fluoropyrrolidine-2-carboxamide] | < 1 µM
CC(=O)c1nn(CC(=O)N2C[C@H](F)C[C@H]2C(=O)Nc2cccc(Br)n2)c2ccc(-c3cnc(CC(N)=O)nc3)cc12 [Compound 532, (2S,4R)-1-(2-(3-Acetyl-5-(2-(2-amino-2-oxoethyl)pyrimidin-5-yl)-1H-indazol-1-yl)acetyl)-N-(6-bromopyridin-2-yl)-4-fluoropyrrolidine-2-carboxamide] | < 1 µM
CC(=O)c1nn(CC(=O)N2C[C@H](F)C[C@H]2C(=O)Nc2nc(Br)ccc2C)c2ccc(-c3cnc(C)nc3)cc12 [Compound 405, (2S,4R)-1-(2-(3-Acetyl-5-(2-methylpyrimidin-5-yl)-1H-indazol-1-yl)acetyl)-N-(6-bromo-3-methylpyridin-2-yl)-4-fluoropyrrolidine-2-carboxamide] | < 1 µM
CC(=O)c1cn(CC(=O)N2C[C@H](F)C[C@H]2C(=O)Nc2cccc(Br)n2)c2ccc(-c3cnc(O[C@@H]4CO[C@H]5[C@@H]4OC[C@H]5O)nc3)cc12 [Compound 334, (2S,4R)-1-(2-(3-acetyl-5-(2-(((3R,3aR,6R,6aR)-6-hydroxyhexahydrofuro [3,2-b]furan-3-yl)oxy)pyrimidin-5-yl)-1H-indol-1-yl)acetyl)-N-(6-bromopyridin-2-yl)-4-fluoropyrrolidine-2-carboxamide] | < 1 µM
